Test results: ChEMBL document CHEMBL1255486, “Effect of vicriviroc on the QT/corrected QT interval and central nervous system in healthy subjects” (Antimicrob Agents Chemother, 2010)

How the values were obtained:
Design in all cases: dose 400 mg/kg, route oral
Conditions in all cases: in vivo
Homo sapiens [1] = experiment: Cardiotoxicity in healthy human assessed as change in corrected QT interval at 400 mg/kg, po within 12 hrs by ECG; assay type: toxicity, organism-based
Homo sapiens [2] = experiment: Toxicity in healthy human assessed as nausea at 400 […], po administered as single dose; assay type: organism-based
Homo sapiens [3] = experiment: Toxicity in healthy human assessed as diarrhea at 400 mg/kg, po administered as single dose; assay type: organism-based
Homo sapiens [4] = experiment: Toxicity in healthy human assessed as abdominal pain at 400 mg/kg, po administered as single dose; assay type: organism-based, Abdomen
Homo sapiens [5] = experiment: Toxicity in healthy human assessed as dizziness at 400 mg/kg, po administered as single dose; assay type: organism-based
Homo sapiens [6] = experiment: Toxicity in healthy human assessed as headache at 400 […], po administered as single dose; assay type: organism-based
Homo sapiens [7] = experiment: Cardiotoxicity in healthy human assessed as change in corrected QT interval at 400 mg/kg, po within 3 hrs by ECG; assay type: toxicity, organism-based

`COc1c(N2C[C@@H]3CCCN[C@@H]3C2)c(F)cc2c(=O)c(C(=O)O)cn(C3CC3)c12` [MOXIFLOXACIN] was tested, and the QTc change (Homo sapiens [1]) was 10 ms, the Activity (Homo sapiens [2]) was 3% and the Activity (Homo sapiens [3]) was 3%. For the same molecule, the Activity (Homo sapiens [4]) was 5%, the Activity (Homo sapiens [5]) was 0% and the Activity (Homo sapiens [6]) was 5%. For the same molecule, the Activity (Homo sapiens [7]) was “Non-toxic”.
